# Results reported in patent publication US8802700B2 (Vertex Pharmaceuticals Incorporated, priority 2010, dated 2014).
# Target: T1, ΔF508-CFTR (Homo sapiens, UniProt P13569, DEL508-508)
# T1 construct: expressed in transfected cells
# Assay: Membrane potential optical assay (FRET voltage-sensor dyes, VIPR), identification of potentiator compounds
# Format: cell-based
# Details: Table 3; assay not given
# Method in brief: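 Potentiator screen measured membrane potential via FRET between CC2-DMPE donor and DiSBAC2(3), read on VIPR II. Compound went in with the first addition of chloride-free gluconate bath; cells were ΔF508-CFTR-expressing NIH3T3 mouse fibroblasts, temperature-corrected at 27 °C for 24 h.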
# T1 sequence (P13569 with tags, fused parts or gaps DEL508-508): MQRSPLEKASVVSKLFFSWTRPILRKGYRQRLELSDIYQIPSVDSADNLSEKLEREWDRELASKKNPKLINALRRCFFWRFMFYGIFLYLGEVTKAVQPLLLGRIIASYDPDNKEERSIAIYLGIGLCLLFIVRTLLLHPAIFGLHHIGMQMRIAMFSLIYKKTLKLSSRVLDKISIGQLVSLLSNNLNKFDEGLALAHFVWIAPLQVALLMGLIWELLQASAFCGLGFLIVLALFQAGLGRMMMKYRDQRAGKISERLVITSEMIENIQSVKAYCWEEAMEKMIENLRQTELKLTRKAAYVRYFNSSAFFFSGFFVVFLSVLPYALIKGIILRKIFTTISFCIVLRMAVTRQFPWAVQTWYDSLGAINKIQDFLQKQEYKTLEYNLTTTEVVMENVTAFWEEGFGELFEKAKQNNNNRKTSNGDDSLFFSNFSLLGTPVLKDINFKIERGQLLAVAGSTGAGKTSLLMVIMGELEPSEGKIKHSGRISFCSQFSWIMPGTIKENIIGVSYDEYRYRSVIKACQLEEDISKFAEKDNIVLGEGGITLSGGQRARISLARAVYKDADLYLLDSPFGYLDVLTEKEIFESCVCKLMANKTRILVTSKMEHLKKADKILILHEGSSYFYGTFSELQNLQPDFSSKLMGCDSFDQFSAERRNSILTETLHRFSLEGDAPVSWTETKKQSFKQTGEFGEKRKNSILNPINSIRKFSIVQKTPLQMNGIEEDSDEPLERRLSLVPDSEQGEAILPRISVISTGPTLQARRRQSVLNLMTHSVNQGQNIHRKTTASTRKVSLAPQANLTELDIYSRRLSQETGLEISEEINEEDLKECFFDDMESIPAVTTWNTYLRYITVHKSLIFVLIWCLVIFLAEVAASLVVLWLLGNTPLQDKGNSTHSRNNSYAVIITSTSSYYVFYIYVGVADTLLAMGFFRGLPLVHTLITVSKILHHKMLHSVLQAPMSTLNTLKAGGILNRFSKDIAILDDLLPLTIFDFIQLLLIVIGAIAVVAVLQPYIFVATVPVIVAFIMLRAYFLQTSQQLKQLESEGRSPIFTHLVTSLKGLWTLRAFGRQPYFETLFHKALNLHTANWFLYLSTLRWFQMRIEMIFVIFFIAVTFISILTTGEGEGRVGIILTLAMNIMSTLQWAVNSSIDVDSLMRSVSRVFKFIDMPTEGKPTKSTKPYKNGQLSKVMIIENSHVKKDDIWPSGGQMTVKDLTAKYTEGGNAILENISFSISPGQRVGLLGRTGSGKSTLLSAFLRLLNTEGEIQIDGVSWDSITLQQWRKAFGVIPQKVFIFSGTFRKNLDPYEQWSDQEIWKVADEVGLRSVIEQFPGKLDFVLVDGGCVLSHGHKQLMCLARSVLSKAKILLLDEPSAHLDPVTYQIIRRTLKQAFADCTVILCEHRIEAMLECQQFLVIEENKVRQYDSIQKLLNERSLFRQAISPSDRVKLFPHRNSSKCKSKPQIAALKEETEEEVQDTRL
row,EC50 [µM],Structure (SMILES)
1,< 10,"CC(C)c1ccc(NC(=O)c2c[nH]c3ccc(F)cc3c2=O)cc1O [Compound 597, 6-fluoro-N-(3-hydroxy-4-isopropyl-phenyl)-4-oxo-1H-quinoline-3-carboxamide]"

# Same assay, conditions: Table 3; assay not given; read-out: % Activity (% Efficacy, relative efficacy)
row,Emax [%],Structure (SMILES)
1,25 to 100,"CC(C)(C)c1cc(F)c(NC(=O)c2c[nH]c3ccc(F)cc3c2=O)cc1O [Compound 319, 6-fluoro-N-(2-fluoro-5-hydroxy-4-tert-butyl-phenyl)-4-oxo-1H-quinoline-3-carboxamide]"
2,25 to 100,"CC(C)(C)c1ccc(NC(=O)c2c[nH]c3ccccc3c2=O)cc1OCCO [Compound 458, N-[3-(2-hydroxyethoxy)-4-tert-butyl-phenyl]-4-oxo-1H-quinoline-3-carboxamide]"
3,25 to 100,"O=C(Nc1cccc(Cc2ccccc2)c1)c1c[nH]c2ccccc2c1=O [Compound 389, N-(3-benzylphenyl)-4-oxo-1H-quinoline-3-carboxamide]"
4,25 to 100,"CC1(C)CCNc2cc(NC(=O)c3c[nH]c4ccccc4c3=O)ccc21 [Compound 300, N-(4,4-Dimethyl-1,2,3,4-tetrahydroquinolin-7-yl)-4-oxo-1H-quinoline-3-carboxamide]"
5,25 to 100,"O=C(Nc1cc(O)cc(C(F)(F)F)c1)c1c[nH]c2ccccc2c1=O [Compound 563, N-[3-hydroxy-5-(trifluoromethyl)phenyl]-4-oxo-1H-quinoline-3-carboxamide]"
6,> 100,"Cc1ccc2c(=O)c(C(=O)Nc3cc(O)c(C(C)(C)C)cc3C(C)(C)C)c[nH]c2c1 [Compound 640, N-(5-hydroxy-2,4-ditert-butyl-phenyl)-7-methyl-4-oxo-1H-quinoline-3-carboxamide]"
7,< 25,"O=C(Nc1cccc(S(=O)(=O)N2CCOCC2)c1)c1c[nH]c2ccccc2c1=O [Compound 185, N-(3-morpholinosulfonylphenyl)-4-oxo-1H-quinoline-3-carboxamide]"
8,25 to 100,"Cc1cc(C2CCCCC2)ccc1NC(=O)c1c[nH]c2ccccc2c1=O [Compound 647, N-(4-cyclohexyl-2-methyl-phenyl)-4-oxo-1H-quinoline-3-carboxamide]"
9,25 to 100,"O=C(Nc1ccc2c(c1)NCCC2)c1c[nH]c2ccccc2c1=O [Compound 299, 4-Oxo-N-(1,2,3,4-tetrahydroquinolin-7-yl)-1H-quinoline-3-carboxamide]"
10,25 to 100,"CCOc1ccc(-c2ccccc2NC(=O)c2c[nH]c3ccccc3c2=O)cc1 [Compound 348, N-[2-(4-ethoxyphenyl)phenyl]-4-oxo-1H-quinoline-3-carboxamide]"
11,25 to 100,"O=C(Nc1ccccc1C(F)(F)F)c1c[nH]c2ccccc2c1=O [Compound 111, 4-oxo-N-[2-(trifluoromethyl)phenyl]-1H-quinoline-3-carboxamide]"
12,25 to 100,"O=C(Nc1ccc2cc(C(F)(F)F)[nH]c2c1)c1c[nH]c2ccccc2c1=O [Compound 537, 4-oxo-N-[2-(trifluoromethyl)-1H-indol-6-yl]-1H-quinoline-3-carboxamide]"
13,25 to 100,"CC(C)(C)c1ccc(NC(=O)c2c[nH]c3ccccc3c2=O)cc1N1CCCC1 [Compound 707, 4-oxo-N-(3-pyrrolidin-1-yl-4-tert-butyl-phenyl)-1H-quinoline-3-carboxamide]"
14,< 25,"O=C(Nc1ccc2ncccc2c1)c1c[nH]c2ccccc2c1=O [Compound 280, 4-oxo-N-(6-quinolyl)-1H-quinoline-3-carboxamide]"
15,25 to 100,"CC(C)(C)c1cc(C#N)c(NC(=O)c2c[nH]c3ccccc3c2=O)cc1O [Compound 476, N-(4-tert-Butyl-2-cyano-5-hydroxyphenyl)-1,4-dihydro-4-oxoquinoline-3-carboxamide]"
16,25 to 100,"CC(C)c1ccc(NC(=O)c2c[nH]c3ccc(F)cc3c2=O)cc1O [Compound 597, 6-fluoro-N-(3-hydroxy-4-isopropyl-phenyl)-4-oxo-1H-quinoline-3-carboxamide]"
17,25 to 100,"O=C(c1ccccc1)c1ccccc1NC(=O)c1c[nH]c2ccccc2c1=O [Compound 252, N-(2-benzoylphenyl)-4-oxo-1H-quinoline-3-carboxamide]"
18,25 to 100,"O=C(Nc1cc2[nH]ccc2cc1C(=O)N1CCCCC1)c1c[nH]c2ccccc2c1=O [Compound 148, 4-Oxo-N-[5-(1-piperidylcarbonyl)-1H-indol-6-yl]-1H-quinoline-3-carboxamide]"
19,25 to 100,"O=C(Nc1ccc(C2CCCCC2)c(O)c1)c1c[nH]c2cccc(O)c2c1=O [Compound 522, N-(4-cyclohexyl-3-hydroxy-phenyl)-5-hydroxy-4-oxo-1H-quinoline-3-carboxamide]"
20,25 to 100,"CC(C)c1cccc(-c2ccccc2NC(=O)c2c[nH]c3ccccc3c2=O)c1 [Compound 290, N-[2-(3-isopropylphenyl)phenyl]-4-oxo-1H-quinoline-3-carboxamide]"
21,25 to 100,"O=C(Nc1cccc(O)c1)c1c[nH]c2ccccc2c1=O [Compound 144, N-(3-hydroxyphenyl)-4-oxo-1H-quinoline-3-carboxamide]"
22,25 to 100,"O=C(Nc1cc2[nH]ccc2cc1C(F)(F)F)c1c[nH]c2cccc(O)c2c1=O [Compound 494, 5-hydroxy-4-oxo-N-[5-(trifluoromethyl)-1H-indol-6-yl]-1H-quinoline-3-carboxamide]"

row,Emax [%],Structure (SMILES)
1,< 25,"NS(=O)(=O)c1cccc(NC(=O)c2c[nH]c3ccccc3c2=O)c1 [Compound 9, 4-oxo-N-(3-sulfamoylphenyl)-1H-quinoline-3-carboxamide]"
2,25 to 100,"CCc1cc(C#N)ccc1NC(=O)c1c[nH]c2ccccc2c1=O [Compound 451, N-(4-cyano-2-ethyl-phenyl)-4-oxo-1H-quinoline-3-carboxamide]"
3,25 to 100,"CC1(c2cc(F)c(NC(=O)c3c[nH]c4ccccc4c3=O)cc2O)CCCCC1 [Compound 92, N-[2-fluoro-5-hydroxy-4-(1-methylcyclohexyl)-phenyl]-4-oxo-1H-quinoline-3-carboxamide]"
4,> 100,"COC(=O)[C@]1(C)CCCN1c1ccc(NC(=O)c2c[nH]c3ccccc3c2=O)c(C(F)(F)F)c1 [Compound 631, (S)-methyl 2-methyl-1-(4-(4-oxo-1,4-dihydroquinoline-3-carboxamido)-3-(trifluoromethyl)phenyl)pyrrolidine-2-carboxylate]"
5,25 to 100,"O=C(Nc1cccc(SC(F)(F)F)c1)c1c[nH]c2ccccc2c1=O [Compound 456, 4-oxo-N-[3-(trifluoromethylsulfanyl)phenyl]-1H-quinoline-3-carboxamide]"
6,< 25,"O=C(Nc1ccccn1)c1c[nH]c2ccccc2c1=O [Compound 155, 4-oxo-N-(2-pyridyl)-1H-quinoline-3-carboxamide]"
7,25 to 100,"COC(=O)Nc1ccc(C(C)C)c(NC(=O)c2c[nH]c3ccccc3c2=O)c1 [Compound 239, [4-isopropyl-3-[(4-oxo-1H-quinolin-3-yl)carbonylamino]phenyl]aminoformic acid methyl ester]"
8,< 25,"O=C(Nc1ccc(N2CCOCC2)nc1)c1c[nH]c2ccccc2c1=O [Compound 400, N-(6-morpholino-3-pyridyl)-4-oxo-1H-quinoline-3-carboxamide]"
9,25 to 100,"CCOc1ccccc1-c1ccc(N)cc1NC(=O)c1c[nH]c2ccccc2c1=O [Compound 393, N-[5-amino-2-(2-ethoxyphenyl)-phenyl]-4-oxo-1H-quinoline-3-carboxamide]"
10,25 to 100,"COc1ncc(-c2ccccc2NC(=O)c2c[nH]c3ccccc3c2=O)c(OC)n1 [Compound 97, N-[2-(2,4-dimethoxypyrimidin-5-yl)phenyl]-4-oxo-1H-quinoline-3-carboxamide]"
11,< 25,"CC(=O)c1cccc(NC(=O)c2c[nH]c3ccccc3c2=O)c1 [Compound 328, N-(3-acetylphenyl)-4-oxo-1H-quinoline-3-carboxamide]"
12,25 to 100,"O=C(Nc1ccccc1-c1csc2ccccc12)c1c[nH]c2ccccc2c1=O [Compound 417, N-(2-(benzo[b]thiophen-3-yl)phenyl)-1,4-dihydro-4-oxoquinoline-3-carboxamide]"
13,> 100,"COc1ccc2[nH]cc(C(=O)Nc3cc4[nH]ccc4cc3C(C)(C)C)c(=O)c2c1 [Compound 533, 6-methoxy-4-oxo-N-(5-tert-butyl-1H-indol-6-yl)-1H-quinoline-3-carboxamide]"
14,25 to 100,"CC(C)(C)c1ccc(NC(=O)c2c[nH]c3ccccc3c2=O)cc1N1CCCCC1 [Compound 510, 4-oxo-N-[3-(1-piperidyl)-4-tert-butyl-phenyl]-1H-quinoline-3-carboxamide]"
15,25 to 100,"O=C(Nc1cc2c(cc1O)CCCC2)c1c[nH]c2ccccc2c1=O [Compound 56, 1,4-dihydro-N-(1,2,3,4-tetrahydro-6-hydroxynaphthalen-7-yl)-4-oxoquinoline-3-carboxamide]"
16,25 to 100,"O=C(Nc1cc(NS(=O)(=O)CCN2CCOCC2)cc(C(F)(F)F)c1)c1c[nH]c2ccccc2c1=O [Compound 272, N-[3-(2-morpholinoethylsulfonylamino)-5-(trifluoromethyl)phenyl]-4-oxo-1H-quinoline-3-carboxamide]"
17,25 to 100,"Cc1cccc2[nH]cc(C(=O)Nc3ccc(N4CCC(F)(F)C4)cc3C(F)(F)F)c(=O)c12 [Compound 528, N-[4-(3,3-difluoropyrrolidin-1-yl)-2-(trifluoromethyl)phenyl]-5-methyl-4-oxo-1H-quinoline-3-carboxamide]"
18,25 to 100,"CC(C)(C)c1ccc(NC(=O)c2c[nH]c3ccccc3c2=O)cc1N [Compound 271, N-(3-amino-4-tert-butyl-phenyl)-4-oxo-1H-quinoline-3-carboxamide]"
19,25 to 100,"O=C(Nc1cc(N2CCCCC2)cc(C(F)(F)F)c1)c1c[nH]c2ccccc2c1=O [Compound 488, 4-oxo-N-[3-(1-piperidyl)-5-(trifluoromethyl)phenyl]-1H-quinoline-3-carboxamide]"
20,25 to 100,"CC(C)(C)c1cc(C(C)(C)C)c(NC(=O)c2c[nH]c3c(Cl)cccc3c2=O)cc1O [Compound 663, 8-chloro-N-(5-hydroxy-2,4-ditert-butyl-phenyl)-4-oxo-1H-quinoline-3-carboxamide]"
21,25 to 100,"COc1cccc(OC)c1-c1ccccc1NC(=O)c1c[nH]c2ccccc2c1=O [Compound 49, N-[2-(2,6-dimethoxyphenyl)phenyl]-4-oxo-1H-quinoline-3-carboxamide]"
